Data as given in paper PMC8745314, “Novel Tetrazole-Based Antimicrobial Agents Targeting Clinical Bacteria Strains: Exploring the Inhibition of Staphylococcus aureus DNA Topoisomerase IV and Gyrase” (International Journal of Molecular Sciences, 2021).
Values after ≈ are worked out from the molar mass of the structure shown.

Tests used:
S. aureus ATCC 25923 = test: MIC broth microdilution, standard strain; type: cell-based; details: Staphylococcus aureus, ATCC25923; S. aureus ATCC 25923, standard strain, 19 h at 35 °C; read-out: minimal inhibitory concentration (MIC)
Description: (§1) All synthesized compounds were tested in vitro against a set of bacteria, including representative standard Gram-positive and Gram-negative rods. Compounds were screened for their minimal inhibitory concentrations (MICs). […] These three compounds were also found to be good inhibitors of the growth of Gram-negative rods: […] The antimicrobial assays were conducted using reference strains of bacteria derived from international microbe collections: American Type Culture Collection (ATCC) and National Collection of Type Culture (NCTC). The following standard strains of bacteria were used: Gram-positive-Staphylococcus aureus NCTC 4163, Staphylococcus aureus ATCC 25923, Staphylococcus aureus ATCC 6538, Staphylococcus aureus ATCC 29213, Staphylococcus epidermidis ATCC 12228, Staphylococcus epidermidis ATCC 35984, Gram-negative: Escherichia coli ATCC 25922, Pseudomonas aeruginosa ATCC 15442. Clinical strains of bacteria used in this study: Gram-positive: Staphylococcus epidermidis 5253, Staphylococcus epidermidis 4243, Staphylococcus aureus […], Staphylococcus aureus […] and Gram-negative: Escherichia coli 520, Escherichia coli 600, Klebsiella pneumoniae 510 and Pseudomonas aeruginosa 659 were obtained from the collection of the Department of Pharmaceutical Microbiology, Medical University of Warsaw, Poland and they were isolated from different biological materials taken from the patients hospitalized in the Warsaw Medical University hospitals. Antimicrobial activity was examined by the minimal inhibitory concentration (MIC) method under standard procedures provided by CLSI with some modifications. MIC was determined by the two-fold serial broth microdilution method in 96-well microtitration plates using Mueller-Hinton II broth medium (Becton Dickinson, Franklin Lakes, NJ, USA). The final inoculum of all studied bacteria was 10^6 CFU/mL (colony forming unit per milliliter). The stock solution of tested compounds was prepared in dimethyl sulfoxide (DMSO) and diluted to a maximum of 1% of solvent content with a sterile medium.

P. aeruginosa ATCC 15442 = test: MIC broth microdilution, standard strain; type: cell-based; details: Pseudomonas aeruginosa, ATCC15442; P. aeruginosa ATCC 15442, standard strain, 19 h at 35 °C; read-out: minimal inhibitory concentration (MIC)
Description: as §1

E. coli ATCC 25922 = test: MIC broth microdilution, standard strain; type: cell-based; details: Escherichia coli, ATCC25922; E. coli ATCC 25922, standard strain, 19 h at 35 °C; read-out: minimal inhibitory concentration (MIC)
Description: as §1

S. aureus NCTC 4163 = test: MIC broth microdilution, standard strain; type: cell-based; details: Staphylococcus aureus, NCTC4163; S. aureus NCTC 4163, standard strain, 19 h at 35 °C; read-out: minimal inhibitory concentration (MIC)
Description: as §1

[1] = biological target: S. aureus topoisomerase IV (Staphylococcus aureus, UniProt P0C1S7+P0C1U9); test: Topoisomerase IV decatenation assay; type: biochemical; details: decatenation of kinetoplast DNA, read-out: IC50 ± S.E.M. for Topoisomerase IV (converted)
Description: Description related to conducted biological studies including cell culture, suitable conditions, and methodology was presented in our previous paper.
Figure 1 The effect of tested compounds on S. aureus topoisomerase IV activity. Decreasing amounts of 1, 2, or 3 were incubated with 200 ng kinetoplast DNA and run-on agarose gel. Lane: 1–5: compound 3 at concentrations 64, 32, 8, 2, 0.5 μg/mL, respectively. Lane: 6–10: compound 2 at concentrations 64, 32, 8, 2, 0.5 μg/mL, respectively. Lane: 11–15: compound 1 at concentrations 64, 32, 8, 2, 0.5 μg/mL, respectively.

[2] = test system: S. epidermidis ATCC 35984; test: MIC broth microdilution, standard strain; type: cell-based; details: Staphylococcus epidermidis, ATCC35984; S. epidermidis ATCC 35984, standard strain, 19 h at 35 °C; read-out: minimal inhibitory concentration (MIC)
Description: (§2) All synthesized compounds were tested in vitro against a set of bacteria, including representative standard Gram-positive and Gram-negative rods. Compounds were screened for their minimal inhibitory concentrations (MICs). […] The antimicrobial assays were conducted using reference strains of bacteria derived from international microbe collections: American Type Culture Collection (ATCC) and National Collection of Type Culture (NCTC). The following standard strains of bacteria were used: Gram-positive-Staphylococcus aureus NCTC 4163, Staphylococcus aureus ATCC 25923, Staphylococcus aureus ATCC 6538, Staphylococcus aureus ATCC 29213, Staphylococcus epidermidis ATCC 12228, Staphylococcus epidermidis ATCC 35984, Gram-negative: Escherichia coli ATCC 25922, Pseudomonas aeruginosa ATCC 15442. Clinical strains of bacteria used in this study: Gram-positive: Staphylococcus epidermidis 5253, Staphylococcus epidermidis 4243, Staphylococcus aureus […], Staphylococcus aureus […] and Gram-negative: Escherichia coli 520, Escherichia coli 600, Klebsiella pneumoniae 510 and Pseudomonas aeruginosa 659 were obtained from the collection of the Department of Pharmaceutical Microbiology, Medical University of Warsaw, Poland and they were isolated from different biological materials taken from the patients hospitalized in the Warsaw Medical University hospitals. […] MIC was determined by the two-fold serial broth microdilution method in 96-well microtitration plates using Mueller-Hinton II broth medium (Becton Dickinson, Franklin Lakes, NJ, USA). The final inoculum of all studied bacteria was 10^6 CFU/mL (colony forming unit per milliliter). The stock solution of tested compounds was prepared in dimethyl sulfoxide (DMSO) and diluted to a maximum of 1% of solvent content with a sterile medium.

[3] = test system: S. epidermidis ATCC 12228; test: MIC broth microdilution, standard strain; type: cell-based; details: Staphylococcus epidermidis, ATCC12228; S. epidermidis ATCC 12228, standard strain, 19 h at 35 °C; read-out: minimal inhibitory concentration (MIC)
Description: as §2

S. aureus ATCC 29213 = test: MIC broth microdilution, standard strain; type: cell-based; details: Staphylococcus aureus, ATCC29213; S. aureus ATCC 29213, standard strain, 19 h at 35 °C; read-out: minimal inhibitory concentration (MIC)
Description: as §2

S. aureus ATCC 6538 = test: MIC broth microdilution, standard strain; type: cell-based; details: Staphylococcus aureus, ATCC6538; S. aureus ATCC 6538, standard strain, 19 h at 35 °C; read-out: minimal inhibitory concentration (MIC)
Description: as §2

For `O=C(O)c1cn(C2CC2)c2cc(N3CCNCC3)c(F)cc2c1=O` [Ciprofloxacin, reference compound], the MIC (S. aureus ATCC 25923) was 0.5 µg/mL (≈ 1.51 µM), the MIC (P. aeruginosa ATCC 15442) was 0.125 µg/mL (≈ 0.377 µM) and the MIC (E. coli ATCC 25922) was 0.015 µg/mL (≈ 0.0453 µM). It also gave an MIC (S. aureus NCTC 4163) of 0.125 µg/mL (≈ 0.377 µM).

With `COc1c(N2C[C@@H]3CCCN[C@@H]3C2)c(F)cc2c(=O)c(C(=O)O)cn(C3CC3)c12` [Moxifloxacin, reference compound] the IC50 [1] was 2.24 µM.

With `CC(C)C12C=CC(C)(CC1)C1C(=O)N(Nc3nnnn3-c3ccccc3Cl)C(=O)C12` (centres unmarked) [Compound 7, 2-((1-(2-Chlorophenyl)-1H-tetrazol-5-yl)amino)-4-isopropyl-7-methyl-3a,4,7,7a-tetrahydro-1H-4,7-ethanoisoindole-1,3(2H)-dione] the MIC [2] was 32 µg/mL (≈ 75 µM), the MIC [3] was 128 µg/mL (≈ 300 µM) and the MIC (S. aureus ATCC 29213) was 64 µg/mL (≈ 150 µM). The MIC (S. aureus ATCC 6538) was 32 µg/mL (≈ 75 µM), the MIC (S. aureus ATCC 25923) was 32 µg/mL (≈ 75 µM) and the MIC (P. aeruginosa ATCC 15442) was > 256 µg/mL. For the same molecule, the MIC (E. coli ATCC 25922) was 128 µg/mL (≈ 300 µM) and the MIC (S. aureus NCTC 4163) was 32 µg/mL (≈ 75 µM).

With `CC(C)C12C=CC(C)(CC1)C1C(=O)N(Nc3nnnn3-c3ccccc3)C(=O)C12` (centres unmarked) [Compound 11, 4-Isopropyl-7-methyl-2-((1-phenyl-1H-tetrazol-5-yl)amino)-3a,4,7,7a-tetrahydro-1H-4,7-ethanoisoindole-1,3(2H)-dione] the MIC [2] was 128 µg/mL (≈ 326 µM), the MIC [3] was 256 µg/mL (≈ 652 µM) and the MIC (S. aureus ATCC 29213) was 128 µg/mL (≈ 326 µM). The MIC (S. aureus ATCC 6538) was 128 µg/mL (≈ 326 µM), the MIC (S. aureus ATCC 25923) was 128 µg/mL (≈ 326 µM) and the MIC (P. aeruginosa ATCC 15442) was > 256 µg/mL. For the same molecule, the MIC (E. coli ATCC 25922) was > 256 µg/mL and the MIC (S. aureus NCTC 4163) was 128 µg/mL (≈ 326 µM).

With `CC1=C(C)C2(C)CC1(C)C1C(=O)N(Nc3nnnn3-c3ccc(C)cc3)C(=O)C12` (centres unmarked) [Compound 5, 4,5,6,7-Tetramethyl-2-((1-(p-tolyl)-1H-tetrazol-5-yl)amino)-3a,4,7,7a-tetrahydro-1H-4,7-methanoisoindole-1,3(2H)-dione] the MIC [2] was > 256 µg/mL, the MIC [3] was > 256 µg/mL and the MIC (S. aureus ATCC 29213) was > 256 µg/mL. The MIC (S. aureus ATCC 6538) was > 256 µg/mL, the MIC (S. aureus ATCC 25923) was > 256 µg/mL and the MIC (P. aeruginosa ATCC 15442) was > 256 µg/mL. The MIC (E. coli ATCC 25922) was > 256 µg/mL and the MIC (S. aureus NCTC 4163) was > 256 µg/mL.
